Measurements as given in patent US20250195532A1, “NOVEL PHOSPHOINOSITIDE 3-KINASE (PI3K) INHIBITOR, COMPOSITIONS COMPRISING THE SAME, METHODS OF MAKING, AND METHODS OF TREATING A DISEASE” (The Curators of the University of Missouri, priority 2022, published 2025).
Where “and” joins values, the source holds several entries; their conditions need not be identical. Identical values can stand only once. Like-named read-outs stand apart in the source and are kept apart here.

Tests used:
[1] = tested on: PC-3 cell line cells; assay: Cellular uptake / cell killing by luminescence, PC-3; format: cell-based; conditions: Homo sapiens, PC-3 cells, FIG. 5C
Description: (§1) Different cell lines were seeded, incubated, and washed prior to administering a dose solution of CK-TGX-MN. Cell lines tested included LNCaP cell line, which is a cell line with epithelial-like morphology that was isolated from a metastatic lymph node a lesion of human prostate cancer; C4-2, which is a prostate cancer cell line derived from LNCaP cells that grows in the absence of androgens, yet responds to manipulation of androgen levels; GL261 cell line, which are murine glioma cells isolated from […] brain; PC-3 cell line, which is a prostate cancer cell line that is typically used as a model of androgen-independent prostate cancer; TRAMP cell line, which are epithelial cells isolated from transgenic adenocarcinoma of the mouse prostate; and Hela cell line, which is an immortalized human cell line isolated from cervical cancer cells.
(§2) The cellular uptake was measured as a function of luminescence and concentration of CK-TGX-MN, by determining the IC50 value. A decrease in luminescence observed translates to the efficacy of CK-TGX-MN in killing the cells of the respective cell culture.
Moving on to FIG. 5C, the cellular uptake of CK-TGX-MN and TGX-221 in PC-3 cell line cells was measured.

[2] = physchem; format: physicochemical
[3] = tested on: Hela cell line cells; assay: Cellular uptake / cell killing by luminescence, Hela; format: cell-based; conditions: Homo sapiens, FIG. 5E
Description: as §1, §2
Moving on to FIG. 5E, the cellular uptake of CK-TGX-MN and TGX-221 in Hela cell line cells was measured.

[4] = tested on: LNCaP cell line cells; assay: Cellular uptake / cell killing by luminescence, LNCaP; format: cell-based; conditions: Homo sapiens, FIG. 5F
Description: as §1, §2
Finally, moving on to FIG. 5F, the cellular uptake of CK-TGX-MN and TGX-221 in LNCaP cell line cells was measured.

[5] = tested on: TRAMP cell line cells; assay: Cellular uptake / cell killing by luminescence, TRAMP; format: cell-based; conditions: Mus musculus, FIG. 5D
Description: as §1, §2
Moving on to FIG. 5D, the cellular uptake of CK-TGX-MN and TGX-221 in TRAMP cell line cells was measured.

[6] = tested on: GL261 cell line cells; assay: Cellular uptake / cell killing by luminescence, GL261; format: cell-based, murine; conditions: Mus musculus, FIG. 5B
Description: as §1, §2

[7] = biological target: PI3Kβ isoform (Homo sapiens, UniProt P42338); assay: Inhibition of PI3Kβ isoform, dose response curves (FIG. 4B); format: biochemical
[8] = tested on: C4-2 cell line cells; assay: Cellular uptake / cell killing by luminescence, C4-2; format: cell-based; conditions: Homo sapiens, C4-2 cells, FIG. 5A
Description: as §1, §2

[9] = Pharmacokinetic (PK) study, IV and oral route, in mice; conditions: mouse, in vivo, oral 2 mg/ml formulation vs IV 1 mg/ml formulation
Description: Bioavailability in Pharmacology is a measure of an amount of a drug substance that enters the circulation and becomes completely available for its intended purpose when introduced into the body. There are several delivery routes for drugs including intra-venous route (IV), oral route, subcutaneous route, rectal route, intramuscular route, vaginal route, inhaled route, and the like.
Bioavailability of CK-TGX-MN was determined in relation to a liquid formulation of CK-TGX-MN 1 mg/ml in 5% DMSO, 10%, and 85% aqueous solution. A dose amount of aqueous CK-TGX-MN was prepared for delivery through the IV route in-vivo. Additionally, a liquid formulation of CK-TGX-MN 2 mg/ml in 5% DMSO, 10%, and 85% aqueous solution was prepared for delivery of a dose amount of CK-TGX-MN through the oral route in-vivo. The pharmacokinetic (PK) studies were performed in mice. As shown in graph 302 of FIG. 3B, the depicted example mice had similar clearance of IV delivered CK-TGX-MN over time.

[10] = background statement, cited from earlier work

Chain of PI3Kβ isoform (P42338 whole entry, canonical isoform): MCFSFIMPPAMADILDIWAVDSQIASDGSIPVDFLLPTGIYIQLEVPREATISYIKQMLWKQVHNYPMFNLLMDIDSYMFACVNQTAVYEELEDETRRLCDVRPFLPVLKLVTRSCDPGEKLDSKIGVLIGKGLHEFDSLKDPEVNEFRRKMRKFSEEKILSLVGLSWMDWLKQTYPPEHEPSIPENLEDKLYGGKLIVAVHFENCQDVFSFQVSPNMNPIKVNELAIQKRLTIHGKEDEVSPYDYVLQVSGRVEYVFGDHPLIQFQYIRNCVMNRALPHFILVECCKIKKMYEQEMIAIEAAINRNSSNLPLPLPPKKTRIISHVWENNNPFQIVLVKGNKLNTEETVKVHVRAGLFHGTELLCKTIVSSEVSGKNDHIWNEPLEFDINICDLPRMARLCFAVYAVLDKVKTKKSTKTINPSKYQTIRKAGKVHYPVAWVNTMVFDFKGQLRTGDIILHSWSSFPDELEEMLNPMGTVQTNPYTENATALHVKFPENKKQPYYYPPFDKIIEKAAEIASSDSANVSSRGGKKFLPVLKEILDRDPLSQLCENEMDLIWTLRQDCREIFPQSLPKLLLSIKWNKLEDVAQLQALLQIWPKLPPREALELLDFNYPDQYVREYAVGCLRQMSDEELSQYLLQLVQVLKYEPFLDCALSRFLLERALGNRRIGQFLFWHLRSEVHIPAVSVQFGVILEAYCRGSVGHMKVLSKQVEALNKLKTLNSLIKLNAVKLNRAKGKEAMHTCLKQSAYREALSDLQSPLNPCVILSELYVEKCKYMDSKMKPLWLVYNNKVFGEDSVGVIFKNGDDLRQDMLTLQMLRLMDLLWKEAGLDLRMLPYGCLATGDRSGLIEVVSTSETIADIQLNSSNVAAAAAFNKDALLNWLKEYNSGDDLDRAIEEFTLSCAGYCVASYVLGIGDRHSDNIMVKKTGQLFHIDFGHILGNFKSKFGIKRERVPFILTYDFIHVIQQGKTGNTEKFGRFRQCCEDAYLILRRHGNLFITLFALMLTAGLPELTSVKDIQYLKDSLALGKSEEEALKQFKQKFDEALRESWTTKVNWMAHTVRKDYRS
Chain of PI3Kβ isoform (P27986 whole entry partner, canonical isoform): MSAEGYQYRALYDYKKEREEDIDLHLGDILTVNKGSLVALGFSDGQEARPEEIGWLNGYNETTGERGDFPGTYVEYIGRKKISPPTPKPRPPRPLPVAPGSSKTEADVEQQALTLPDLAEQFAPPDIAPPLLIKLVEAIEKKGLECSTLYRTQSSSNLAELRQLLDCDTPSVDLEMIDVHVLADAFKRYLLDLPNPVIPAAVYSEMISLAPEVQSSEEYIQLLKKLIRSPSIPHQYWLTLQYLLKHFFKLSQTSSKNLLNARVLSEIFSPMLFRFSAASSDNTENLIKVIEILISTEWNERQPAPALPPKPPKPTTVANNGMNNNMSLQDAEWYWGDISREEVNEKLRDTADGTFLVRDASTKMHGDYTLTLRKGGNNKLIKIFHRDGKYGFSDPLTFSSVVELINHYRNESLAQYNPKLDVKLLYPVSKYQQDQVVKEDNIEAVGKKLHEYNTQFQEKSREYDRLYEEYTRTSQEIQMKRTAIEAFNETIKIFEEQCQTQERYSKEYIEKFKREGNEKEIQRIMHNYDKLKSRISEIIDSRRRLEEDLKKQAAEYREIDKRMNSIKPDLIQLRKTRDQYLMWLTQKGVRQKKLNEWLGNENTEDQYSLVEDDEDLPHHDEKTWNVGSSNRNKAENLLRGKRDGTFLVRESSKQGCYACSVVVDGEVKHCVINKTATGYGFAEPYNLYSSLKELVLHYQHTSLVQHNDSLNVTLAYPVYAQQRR

Row | solubility [2] | IC50 [7] | bioavailability [9] | Compound | IC50 [1] | IC50 [3] | IC50 [4] | IC50 [5] | IC50 [6] | IC50 [8] | solubility [10] | Log D7.4 ([10]; pH 7.4)
1 | 4630 µg/mL and 11400 µM | 0.00948 µM | ~6.4% | Cc1cc(C(C)N(CCN)c2ccccc2)c2nc(N3CCOCC3)cc(=O)n2c1 (stereo not drawn) [CK-TGX-MN, 9-(1-((2-aminoethyl)(phenyl)amino)ethyl)-7-methyl-2-morpholino-4H-pyrido[1,2-a]pyrimidin-4-one] | 24.4 µM | 23.9 µM | 6.39 µM | 17.2 µM | 13.5 µM | 15.8 µM | – | –
2 | 90 µg/mL and 250 µM | – | – | Cc1cc(C(C)Nc2ccccc2)c2nc(N3CCOCC3)cc(=O)n2c1 (stereo not drawn) [TGX-221, 7-methyl-2-(4-morpholinyl)-9-[1-(phenylamino)ethyl]-4H-pyrido[1,2-a]pyrimidin-4-one] | 156 µM | 69.7 µM | 30.5 µM | 81.2 µM | 42 µM | 93.2 µM | < 1000 µg/mL | 3.6
